We go through six molecules from ChEMBL document CHEMBL2073758, “Agmatine is efficiently transported by non-neuronal monoamine transporters extraneuronal monoamine transporter (EMT) and organic cation transporter 2 (OCT2)” (J Pharmacol Exp Ther, 2003).

Data set [1] has as its target T1, Solute carrier family 22 member 1 (Homo sapiens, UniProt O15245).
T1 sequence (O15245 whole entry): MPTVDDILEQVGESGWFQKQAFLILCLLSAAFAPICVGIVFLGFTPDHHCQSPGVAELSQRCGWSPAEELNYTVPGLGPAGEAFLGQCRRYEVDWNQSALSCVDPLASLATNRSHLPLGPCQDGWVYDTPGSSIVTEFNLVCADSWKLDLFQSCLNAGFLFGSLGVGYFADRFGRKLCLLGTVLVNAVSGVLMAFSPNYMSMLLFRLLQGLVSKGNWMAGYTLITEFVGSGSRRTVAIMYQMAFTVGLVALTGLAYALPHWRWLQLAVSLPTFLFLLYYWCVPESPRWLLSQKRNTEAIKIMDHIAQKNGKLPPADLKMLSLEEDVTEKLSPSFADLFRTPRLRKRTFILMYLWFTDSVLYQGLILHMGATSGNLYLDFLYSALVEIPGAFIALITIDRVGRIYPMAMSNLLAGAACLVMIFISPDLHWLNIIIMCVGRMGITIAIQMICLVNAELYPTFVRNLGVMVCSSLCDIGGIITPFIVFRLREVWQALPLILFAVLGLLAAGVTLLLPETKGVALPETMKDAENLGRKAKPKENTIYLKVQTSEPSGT
The data set can be described thus: (§1) TP_TRANSPORTER: uptake in OCT1-expressing 293 cells. It counts as functional, cell-based. The following applies: hek293.

Data set [2] concerns the target T2, Solute carrier family 22 member 1 (Rattus norvegicus, UniProt Q63089).
T2 sequence (Q63089 whole entry): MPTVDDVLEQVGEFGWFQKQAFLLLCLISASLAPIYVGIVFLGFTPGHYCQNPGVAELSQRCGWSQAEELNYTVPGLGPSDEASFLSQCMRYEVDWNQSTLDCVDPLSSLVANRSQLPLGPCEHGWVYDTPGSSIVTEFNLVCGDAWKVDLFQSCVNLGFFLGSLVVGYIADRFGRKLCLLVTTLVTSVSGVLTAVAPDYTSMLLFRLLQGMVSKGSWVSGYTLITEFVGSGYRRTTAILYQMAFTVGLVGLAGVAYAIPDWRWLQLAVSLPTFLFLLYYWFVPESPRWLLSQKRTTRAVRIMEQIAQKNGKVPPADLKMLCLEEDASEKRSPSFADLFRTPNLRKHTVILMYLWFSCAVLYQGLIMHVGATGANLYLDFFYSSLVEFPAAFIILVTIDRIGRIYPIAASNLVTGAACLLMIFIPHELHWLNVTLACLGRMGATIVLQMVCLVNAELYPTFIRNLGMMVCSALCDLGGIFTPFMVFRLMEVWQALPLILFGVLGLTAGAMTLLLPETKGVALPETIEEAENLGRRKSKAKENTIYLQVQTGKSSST
The description is as §1. The class given is functional, cell-based. The settings on record: human, hek293.

Data set [3] concerns the target T1, Solute carrier family 22 member 1. Briefly: (§2) TP_TRANSPORTER: inhibition of uptake of 0.1 uM MPP+ in OCT1-expressing 293 cells. The class given is functional, cell-based, HEK293.
The target in data set [4] is T2, Solute carrier family 22 member 1. Described as §2. The class given is functional, cell-based, HEK293.
The target in data set [5] is T3, Solute carrier family 22 member 2 (Homo sapiens, UniProt O15244).
T3 sequence (O15244 whole entry): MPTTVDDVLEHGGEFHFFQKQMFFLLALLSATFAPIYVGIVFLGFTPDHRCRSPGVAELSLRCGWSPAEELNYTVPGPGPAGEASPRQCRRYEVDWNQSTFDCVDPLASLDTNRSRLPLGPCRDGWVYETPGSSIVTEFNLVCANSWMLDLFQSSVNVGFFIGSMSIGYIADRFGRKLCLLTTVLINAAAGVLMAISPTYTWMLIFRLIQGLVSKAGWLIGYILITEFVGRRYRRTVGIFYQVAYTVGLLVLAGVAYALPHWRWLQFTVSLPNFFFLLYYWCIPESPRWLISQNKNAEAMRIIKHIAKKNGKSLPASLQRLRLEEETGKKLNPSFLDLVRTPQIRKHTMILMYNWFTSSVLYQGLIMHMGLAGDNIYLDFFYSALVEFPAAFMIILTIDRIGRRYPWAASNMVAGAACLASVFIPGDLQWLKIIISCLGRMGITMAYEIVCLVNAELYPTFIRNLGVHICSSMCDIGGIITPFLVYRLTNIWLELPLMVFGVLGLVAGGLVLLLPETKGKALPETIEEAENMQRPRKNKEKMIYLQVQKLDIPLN
Briefly: (§3) TP_TRANSPORTER: uptake in OCT2-expressing 293 cells. It counts as functional, cell-based. The following applies: hek293.

For data set [6], the target named is T4, Solute carrier family 22 member 2 (Rattus norvegicus, UniProt Q9R0W2).
T4 sequence (Q9R0W2 whole entry): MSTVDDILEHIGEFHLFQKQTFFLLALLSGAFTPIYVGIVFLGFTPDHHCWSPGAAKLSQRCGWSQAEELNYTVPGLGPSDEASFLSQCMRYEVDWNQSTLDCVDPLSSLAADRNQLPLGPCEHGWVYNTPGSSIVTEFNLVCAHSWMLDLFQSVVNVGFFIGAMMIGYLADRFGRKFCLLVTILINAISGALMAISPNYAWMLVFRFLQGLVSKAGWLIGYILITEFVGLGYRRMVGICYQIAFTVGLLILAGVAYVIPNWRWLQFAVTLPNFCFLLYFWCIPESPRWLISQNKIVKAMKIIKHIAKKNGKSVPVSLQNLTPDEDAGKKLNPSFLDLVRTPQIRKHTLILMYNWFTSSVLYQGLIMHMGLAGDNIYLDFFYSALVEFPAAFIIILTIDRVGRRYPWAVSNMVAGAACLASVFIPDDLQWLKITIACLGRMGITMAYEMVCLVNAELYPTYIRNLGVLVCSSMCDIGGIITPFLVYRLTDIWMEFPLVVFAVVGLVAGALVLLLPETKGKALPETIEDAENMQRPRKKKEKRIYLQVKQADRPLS
The data set is described as §3. The class given is functional, cell-based. The settings on record: human, hek293.

For data set [7], the target named is T5, Solute carrier family 22 member 3 (Rattus norvegicus, UniProt O88446).
T5 sequence (O88446 whole entry): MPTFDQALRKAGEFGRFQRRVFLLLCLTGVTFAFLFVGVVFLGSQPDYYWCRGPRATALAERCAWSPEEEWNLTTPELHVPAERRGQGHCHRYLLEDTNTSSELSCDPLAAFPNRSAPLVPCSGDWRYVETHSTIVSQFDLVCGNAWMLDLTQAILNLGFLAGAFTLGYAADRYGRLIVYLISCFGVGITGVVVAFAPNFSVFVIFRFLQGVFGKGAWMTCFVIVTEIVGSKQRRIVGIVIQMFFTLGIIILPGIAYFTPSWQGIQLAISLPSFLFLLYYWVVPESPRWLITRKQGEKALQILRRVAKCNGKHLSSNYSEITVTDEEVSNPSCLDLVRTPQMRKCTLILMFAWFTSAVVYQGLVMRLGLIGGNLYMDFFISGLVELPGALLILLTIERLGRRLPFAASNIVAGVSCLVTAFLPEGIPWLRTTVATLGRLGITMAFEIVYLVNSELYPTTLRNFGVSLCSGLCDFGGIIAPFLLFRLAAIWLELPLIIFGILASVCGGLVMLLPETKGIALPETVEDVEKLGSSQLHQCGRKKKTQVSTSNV
The data set can be described thus: (§4) TP_TRANSPORTER: uptake in OCT3-expressing 293 cells. The settings on record: human, hek293. It counts as functional, cell-based.

Substrate in data set [8]: N=C(N)NCCCCN
The description is as §4. It counts as functional, cell-based, HEK293.

Substrate in data set [9]: N=C(N)NCCCCN
Described as §3. The class given is functional, cell-based, HEK293.

In the case of `N=C(N)NCCCCN` [AGMATINE], the Activity result in data set [1] and in data set [2] was “substrate []” throughout. For the same molecule, the Ki in data set [3] stood at 24 mM; in data set [4], 8.6 mM.
In the case of `C[n+]1ccc(-c2ccccc2)cc1`, the Activity was 7.8 µM in data set [5]; “substrate []” in [6]; “substrate []” in data set [7]; 32 µM in [1]; “substrate []” in data set [2].

B1: Solute carrier family 22 member 3 (Rattus norvegicus) (protein)
chain: T5 sequence (O88446 whole entry)
As to B1, in data set [8], the Km turned out to be 900 µM.

B2: Solute carrier family 22 member 2 (Rattus norvegicus) (protein)
chain: T4 sequence (Q9R0W2 whole entry)
On to B2, for which the Km in [9] was 950 µM.

B3: Solute carrier family 22 member 3 (Homo sapiens) (protein)
chain: MPSFDEALQRVGEFGRFQRRVFLLLCLTGVTFAFLFVGVVFLGTQPDHYWCRGPSAAALAERCGWSPEEEWNRTAPASRGPEPPERRGRCQRYLLEAANDSASATSALSCADPLAAFPNRSAPLVPCRGGWRYAQAHSTIVSEFDLVCVNAWMLDLTQAILNLGFLTGAFTLGYAADRYGRIVIYLLSCLGVGVTGVVVAFAPNFPVFVIFRFLQGVFGKGTWMTCYVIVTEIVGSKQRRIVGIVIQMFFTLGIIILPGIAYFIPNWQGIQLAITLPSFLFLLYYWVVPESPRWLITRKKGDKALQILRRIAKCNGKYLSSNYSEITVTDEEVSNPSFLDLVRTPQMRKCTLILMFAWFTSAVVYQGLVMRLGIIGGNLYIDFFISGVVELPGALLILLTIERLGRRLPFAASNIVAGVACLVTAFLPEGIAWLRTTVATLGRLGITMAFEIVYLVNSELYPTTLRNFGVSLCSGLCDFGGIIAPFLLFRLAAVWLELPLIIFGILASICGGLVMLLPETKGIALPETVDDVEKLGSPHSCKCGRNKKTPVSRSHL
On to B3, for which the Km in data set [8] was 2500 µM.

B4: Solute carrier family 22 member 2 (Homo sapiens) (protein)
chain: T3 sequence (O15244 whole entry)
As for B4, the Km in [9] was 1400 µM.

One may read the Ki as a dissociation constant, usually derived from enzyme kinetics or from competition with a known ligand. In general, Km refers to the substrate concentration at which the rate is half of its maximum.
